# Source: patent publication US5013722A, “Cholecystokinin analogs for controlling appetite” (Hoffmann-LaRoche Inc., priority 1989, dated 1991)
# Where a SMILES comes first, the peptide text is derived from it. Where no end group is shown, it is not given here. [ ]: non-standard residue; d: D form. The star is where a group is joined. Thr(SO3H) = C[C@@H](OS(=O)(=O)O)[C@H](N)C(=O)O; sY = N[C@@H](Cc1ccc(OS(=O)(=O)O)cc1)C(=O)O; NMeF = CN[C@@H](Cc1ccccc1)C(=O)O; Nle = CCCC[C@H](N)C(=O)O; For = O=C*
# How the values were obtained:
# [1] = system: Male Sprague-Dawley (CD) rats, food intake; experiment: Two-meal feeding assay, intraperitoneal administration; format: in vivo, rat; settings: 32 microgm/Kg i.p., mean ± SEM; for Food Intake 1st Meal: 15 min before first meal
# Method: (§1) Male Sprague-Dawley (CD) rats weighing 180-200 grams (Charles River Breeding Laboratories) were acclimated to a 12 h light/dark cycle (6 a.m. to 6 p.m.) in a room kept at 22° C. They were subsequently fasted for two days, weighed, placed in individual cages, and a four-day period of meal training was begun. During this time the rats were given ground laboratory chow (Purina Lab Chow) in jars for one hour from 9:00 a.m. until 10:00 a.m., the jars were removed from 10:00 a.m. to 12:00 p.m., and placed back in the cages from 12:00 until 1:00 p.m. Under this `1-2-1` meal feeding regime most rats learn to eat approximately as much Per day during the two hours they have access to food as rats which have food ad libitum over the entire 24-hour day. On the fourth day, the rats were weighed again, and any which lost more than five grams body weight were excluded from the test. The animals were then distributed into experimental (n=5 to 6) and control groups (n=6-12). but not matched for body weight.
# Peptides of the invention were suspended either in saline. if soluble, or in 1% gum arabic, if insoluble, at concentrations of 0 to 320 μg/ml/kg body weight and were administered intraperitonerally 15 min before the first meal on day 5 of meal feeding. The rats were then given their meals as they had been during the previous four days, and the food cups were weighed both before and after each meal to determine food consumption. Food intake was expressed as a mean and standard error of the mean in grams consumed or as a percent of control values for the various groups. The treated groups were compared to the control groups by t-test analysis. […]
# [2] = molecular target: T1, receptors in rat pancreas (3H-CCK-8-(SO3 H) binding) (Rattus norvegicus, UniProt P30551); experiment: In vitro receptor binding assay, rat pancreas homogenate, 3H-CCK-8-(SO3H) radioligand
# T1 construct: receptors in homogenized preparations of rat pancreatic cells and bovine striata; from tissue; host or cells: rat pancreas homogenate (48,000 x g pellet)
# T1 sequence (P30551 1-444): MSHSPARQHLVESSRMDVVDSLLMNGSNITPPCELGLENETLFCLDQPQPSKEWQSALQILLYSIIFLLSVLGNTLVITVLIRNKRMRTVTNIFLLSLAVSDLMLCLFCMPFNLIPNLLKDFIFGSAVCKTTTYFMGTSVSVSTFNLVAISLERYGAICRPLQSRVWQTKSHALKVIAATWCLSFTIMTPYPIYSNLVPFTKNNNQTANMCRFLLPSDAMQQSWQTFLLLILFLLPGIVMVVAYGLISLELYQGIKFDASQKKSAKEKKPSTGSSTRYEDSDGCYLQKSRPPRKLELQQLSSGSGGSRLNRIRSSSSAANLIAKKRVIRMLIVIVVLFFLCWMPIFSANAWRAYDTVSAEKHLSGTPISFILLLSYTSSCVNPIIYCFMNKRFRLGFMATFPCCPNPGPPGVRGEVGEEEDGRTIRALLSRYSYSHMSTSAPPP
# Method: This strategy was utilized to minimize central nervous system side effects by identifying peptides with peripheral receptor selectivity. […] The tissue was homogenized 2 x for approx. 15 sec. at 0° C. using a Polytron homogenizer at a setting of 6. The tissue was isolated by centrifugation at 48,000 x g for 10 min. at 0° C. […] Samples were incubated for 30 min. at 25° C. and the incubation terminated by pouring the mixture onto a pre-wet Whatman GF/B filter on a Sandbeck Vacuum Filtration Manifold. The incubation tubes were washed with 2×3 ml of ice-cold HEPES Buffer #2 and the wash filtered through the GF/B filter. The filter was air dried for 10 min. and then placed in a scintillation vial with 12 ml of Beckman HP/b Ready-Solv scintillation cocktail. The vials were shaken for 2 hours and then counted using a Beckman Model 7800 liquid scintillation spectrometer.
# [3] = system: Male rats, food intake; experiment: Two-meal feeding assay, intranasal administration; format: in vivo, rat
# Method: as §1
# Male rats were meal trained as described in Example 9. The peptide of Example 2 was dissolved in saline and was administered to the rats intranasally. CCK-8, dissolved in saline was used as a control.
# [4] = system: lean and obese men, food intake; settings: cited from earlier work
# [5] = molecular target: T2, Rat kidney metalloendopeptidase (Rattus norvegicus, UniProt P07861); experiment: Degradation by rat kidney metalloendopeptidase (HPLC); format: in vitro ADME; settings: for % Degradation by Height: 37° C., pH 7.6
# T2 construct: from tissue; host or cells: rat kidney
# T2 sequence (P07861 1-750): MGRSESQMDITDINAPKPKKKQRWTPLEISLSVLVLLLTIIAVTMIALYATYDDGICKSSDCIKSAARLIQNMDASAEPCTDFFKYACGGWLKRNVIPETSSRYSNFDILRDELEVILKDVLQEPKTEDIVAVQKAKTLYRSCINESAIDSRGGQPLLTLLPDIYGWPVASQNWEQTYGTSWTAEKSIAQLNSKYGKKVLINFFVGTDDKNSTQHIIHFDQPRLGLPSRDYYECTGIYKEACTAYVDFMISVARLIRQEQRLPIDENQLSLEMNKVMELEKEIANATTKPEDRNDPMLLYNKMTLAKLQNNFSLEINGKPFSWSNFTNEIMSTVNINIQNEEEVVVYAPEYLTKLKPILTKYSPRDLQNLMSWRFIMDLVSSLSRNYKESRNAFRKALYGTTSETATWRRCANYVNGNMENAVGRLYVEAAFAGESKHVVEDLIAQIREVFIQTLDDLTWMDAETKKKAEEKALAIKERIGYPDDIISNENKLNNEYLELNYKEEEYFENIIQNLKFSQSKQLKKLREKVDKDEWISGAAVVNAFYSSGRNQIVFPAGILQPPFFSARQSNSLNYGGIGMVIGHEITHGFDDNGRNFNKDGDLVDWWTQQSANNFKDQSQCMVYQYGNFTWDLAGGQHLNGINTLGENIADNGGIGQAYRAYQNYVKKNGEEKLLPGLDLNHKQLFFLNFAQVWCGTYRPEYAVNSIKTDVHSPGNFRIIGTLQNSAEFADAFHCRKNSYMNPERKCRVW
# Method: Rat kidney metalloendopeptidase (0.01 μg) and 5 nmol of peptide were incubated in 2 μmol tris-HCl buffer (pH 7.6) and at 37° C. for varying periods of time. The degradation of the peptide was monitored by analytical HPLC on a 5 micron Adsorbosphere-ODS column with a 0-50% CH3 CN gradient in 0.1N potassium phosphate, pH 3.0, with UV detection at 210 nm. Rates are based on presumed production of Asp-Tyr(SO3 H)-Met-Gly for CCK-8 and the presumed production of Ac-Tyr(SO3 H)-Met-Gly for Example 2 and 3.
# [6] = molecular target: T3, receptors in bovine striatum (3H-CCK-8-(SO3 H) binding, central receptor) (Bos taurus, UniProt P79266); experiment: In vitro receptor binding assay, bovine striatum homogenate, 3H-CCK-8-(SO3H) radioligand; settings: 0.15 nM radioligand, 30 min, 25° C.; read-out: Bovine Striatum IC50 (inhibition of specific 3H-CCK-8-(SO3H) binding)
# T3 construct: receptors in homogenized preparations of rat pancreatic cells and bovine striata; from tissue; host or cells: bovine striatum homogenate (48,000 x g pellet)
# T3 sequence (P79266 1-454): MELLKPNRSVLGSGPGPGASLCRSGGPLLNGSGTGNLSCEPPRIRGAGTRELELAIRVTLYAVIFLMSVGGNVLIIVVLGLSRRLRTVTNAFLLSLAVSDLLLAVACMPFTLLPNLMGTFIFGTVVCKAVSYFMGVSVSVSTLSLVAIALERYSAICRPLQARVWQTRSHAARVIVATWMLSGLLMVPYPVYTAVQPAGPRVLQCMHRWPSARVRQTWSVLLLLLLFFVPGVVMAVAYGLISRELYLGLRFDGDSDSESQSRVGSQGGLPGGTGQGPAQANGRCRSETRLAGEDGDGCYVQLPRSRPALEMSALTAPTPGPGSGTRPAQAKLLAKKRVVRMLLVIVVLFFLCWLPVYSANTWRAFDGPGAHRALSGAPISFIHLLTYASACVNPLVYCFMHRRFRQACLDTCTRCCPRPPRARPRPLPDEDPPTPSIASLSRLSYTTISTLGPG
# Method: Frozen bovine striatum (approx. 5 g) and fresh rat pancreas (approx. 5 g) cleaned of fat and extraneous tissue were homogenized in HEPES buffer #1 (10 mM HEPES+130 mM NaCl+5 mM MgCl2. pH 7.4) using 35 parts buffer per 1 part tissue on a wet weight/volume basis (approx. 175 ml). The tissue was homogenized 2 x for approx. 15 sec. at 0° C. using a Polytron homogenizer at a setting of 6. The tissue was isolated by centrifugation at 48,000 x g for 10 min. at 0° C. The resulting tissue pellet was resuspended in HEPES buffer #2 (10 mM HEPES+130 mM NaCl+5 mM MgCl2 +1 mg/L phenylmethanesulfonyl fluoride (PMSF)+200 mg/L Bacitracin): 1 part striatal tissue (original wet weight) per 80 parts buffer and 1 part pancreas tissue (original wet weight) per 70 parts buffer.
# Incubation was initiated by combining various concentrations of native CCK-8 or peptides of formula I, II and III with ^3 H-CCK-8-(SO3 H) (final conc.=0.15 nM) and tissue homogenate (striatum 0.26 mg protein in 2 ml final volume; pancreas 0.165 mg protein in 1 ml final volume). Samples were incubated for 30 min. at 25° C. and the incubation terminated by pouring the mixture onto a pre-wet Whatman GF/B filter on a Sandbeck Vacuum Filtration Manifold. The incubation tubes were washed with 2×3 ml of ice-cold HEPES Buffer #2 and the wash filtered through the GF/B filter. The filter was air dried for 10 min. and then placed in a scintillation vial with 12 ml of Beckman HP/b Ready-Solv scintillation cocktail. The vials were shaken for 2 hours and then counted using a Beckman Model 7800 liquid scintillation spectrometer. Non-specific binding was determined in the presence of 1 micromole native CCK-8 and subtracted from all samples to determine specific binding. The concentration of ^3 peptide necessary to inhibit 50% of total specific H-CCK-8-(SO3 H) binding (IC50 value) was determined by log-probit analysis.
# [7] = system: rat and monkey, satiety; settings: cited from earlier work
# [8] = 1000 μg/kg intranasal, saline = 100
compound,measurement,setting,value
"CSCC[C@H](NC(=O)[C@H](Cc1ccc(OS(=O)(=O)O)cc1)NC(=O)[C@@H](N)CC(=O)O)C(=O)NCC(=O)N[C@@H](Cc1c[nH]c2ccccc12)C(=O)N[C@@H](CCSC)C(=O)N[C@@H](CC(=O)O)C(=O)N[C@@H](Cc1ccccc1)C(N)=O [CCK-8, Asp--Tyr(SO3 H)--Met--Gly--Trp--Met--Asp--Phe--NH2, reference compound]",Food Intake 1st Meal,[1],27 ± 17 % of Control
same,Food Intake 2nd Meal,[1],149 ± 6 % of Control
same,"Binding selectivity, receptor sites in pancreas versus brain",[2]; rat pancreas vs bovine striatum,binds to receptor sites in the pancreas and brain
same,Food Intake (activity in words),[3]; 400 μg/kg intranasal,Inactive
same,Food Intake 1st meal Grams consumed,[3]; 1000 μg/kg intranasal,4.9 ± 0.7 Grams
same,Food Intake 2nd meal Grams consumed,[3]; 1000 μg/kg intranasal,6.3 ± 05 Grams
same,Food Intake 1st meal (%),[3]; [8],66%
same,Food Intake 2nd meal (%),[3]; [8],112%
same,Food intake after infusion,[4],decrease food intake in lean and obese men
same,% Degradation by Height,[5]; incubation 0 min,0%
same,% Degradation by Height,[5]; incubation 15 min,6.2%
same,% Degradation by Height,[5]; incubation 30 min,33.2%
same,No. of Peaks (degradation products),[5]; incubation 60 min,4
same,% Degradation by Height,[5]; incubation 60 min,69.7%
"CCCC[C@H](NC(=O)[C@H](Cc1ccc(OS(=O)(=O)O)cc1)NC(C)=O)C(=O)N[C@H](C)C(=O)N[C@@H](Cc1cn(C=O)c2ccccc12)C(=O)N[C@@H](CCSC)C(=O)N[C@H](C(=O)N(C)[C@@H](Cc1ccccc1)C(N)=O)[C@@H](C)OS(=O)(=O)O [Example 3, Ac-Tyr-(SO3 H)-Nle-(D)Ala-Trp(For)-Met-Thr(SO3 H)-N-methyl-Phe-NH2] (Ac-[sY][Nle][dA]W(For)M[Thr(SO3H)][NMeF]-NH2)",Food Intake 1st Meal,[1],34 ± 6 % of Control
same,Food Intake 2nd Meal,[1],164 ± 16 % of Control
same,IC50,[6],100 nM
same,IC50,"[2]; 0.15 nM radioligand, 30 min, 25° C., read-out: Rat Pancreas IC50 (inhibition of specific 3H-CCK-8-(SO3H) binding)",100 nM
same,% Degradation by Height,[5]; incubation 0 min,0%
same,% Degradation by Height,[5]; incubation 60 min,0%
same,% Degradation by Height,[5]; incubation 120 min,0%
same,No. of Peaks (degradation products),[5]; incubation 240 min,0
same,% Degradation by Height,[5]; incubation 240 min,0%
"Cholecystokinin (KAPSGRVSMIKNLQSLDPSHRISDRDYMGWMDF; ends and bridges not checked; UniProt P01356 70-102, looked up) [CCK, polypeptide hormone first isolated as a 33-amino acid peptide from the porcine gastrointestinal tract]",Satiety after peripheral administration,[7],produce satiety in the rat and the monkey
